Test results from patent US11987807B2, “Isolated human lung progenitor cells and uses thereof” (THE GENERAL HOSPITAL CORPORATION, priority 2012, dated 2024).
Like-named read-outs stand apart in the source and are kept apart here.

Tests used:
[1] = tested on: mouse ES cell-derived definitive endoderm; assay: Anteriorization of mouse ESC-derived definitive endoderm to FoxA2+Sox2+ anterior foregut endoderm; assay type: cell-based; conditions: for effect on FoxA2+Sox2+ cells: treatment of definitive endoderm at the anteriorization step
Method: This technology was adapted herein to generate definitive endoderm (DE) from mouse ES cells. […] Next, it was asked if the newly generated DE cells have the competence to generate Nkx2.1+ cells. […] Since the inventors had already incorporated BMP inhibition during DE generation (FIG. 7), the question whether continuous BMP inhibition is necessary for anteriorization or if TGFβ inhibition alone was sufficient for anterior patterning was explored. Endoderm was treated with combinations of Activin (a TGFβ agonist), A-83-01 (a TGFβ antagonist), BMP4, and Dorsomorphin (a BMP4 antagonist) for 2 days (FIG. 2B). The number of FoxA2+Sox2+ anterior endoderm cells was compared to the total number of FoxA2+ endoderm cells (FIG. 2B). The treated cells were further exposed to the BMP4/FGF2/WNT agonist cocktail for another 2 days to examine their competence to generate Nkx2.1+ cells (FIG. 2B). […] It was tested if their inhibition would enhance anteriorization together with a TGFβ inhibitor.
Mouse Endoderm Anteriorization and Nkx2.1 Cell Differentiation: Mouse definitive endoderm was generated as described herein. To anteriorize endoderm, on and after day 5, the cells were split and re-seeded on to the plates pre-coated with 804G-conditioned medium and fed with DO medium+0.5-1 μM A8301 (CalBiochem, 616454) for 2 days. Then the media was rinsed with DO medium 2 times and switched to DO medium supplemented with 50 ng/ml BMP4, 100 ng/ml FGF2 (GIBCO, PHG0026), and 5-10 nM GSK3iXV for another 2-3 days. To generate Nkx2.1+Sox2+ proximal progenitor cells, the cells were rinsed with DO medium 2 times and switched to DO medium containing RA-supplemented B27, 50 ng/ml BMP7, 50 ng/ml FGF7, 100 nM IWR-1, and 1-2 μM PD98059 for 2 days or longer times.
Immunofluorescence: At each differentiation step, the cells were fixed with fresh paraformaldehyde (4%) for 15 min at room temperature, rinsed in PBS, washed with PBS+0.2% Triton X-100 and incubated with the primary antibodies at 4° C. overnight (>16 hrs) diluted in PBS+1% BSA. Following incubation, the cells were rinsed 4 times PBS+0.2% Triton X-100, and incubated with secondary antibodies at room temperature for 2 hours. The images were visualized using an Olympus IX71 inverted fluorescence microscope or a Nikon A1 Confocal Laser microscope.
The secondary antibodies were purchased from Invitrogen (AlexaFluor-549 and AlexaFluor-488). The quantification was performed by counting at least 5 random fields at 20× magnification and calculating the average and standard deviation.

[2] = tested on: human iPSC-derived Foxa2+Sox2+ anterior endoderm; assay: Chemical screening and differentiation of Nkx2.1+ lung progenitors from human iPSC-derived Foxa2+Sox2+ anterior endoderm; assay type: cell-based
Method: In order to increase the efficiency of Nkx2.1+ lung progenitor production, the inventors performed an unbiased high throughput chemical screening on a kinase pathway inhibitor library and an NIH clinical drug library to identify small molecule compounds and FDA-approved clinical drugs that can facilitate NKX2.1-positive lung progenitor differentiation. The platform for chemical screening is illustrated in FIG. 14A. The screening was performed at the step of conversion of Foxa2+Sox2+ anterior endoderm to Nkx2.1+ lung endoderm.
At least five molecules were identified from the Kinase Compound Set (240 compounds) and at least 6 drugs were identified from the NIH Clinical Collection (400 compounds) that produced statistically significant (more than 3 fold) increases in the percentage of Nkx2.1+ cells (FIG. 14B). These Nkx2.1+ cells have been further stained in separate experiments to exclude the expression of neuronal lineage marker Tuj1 and thyroid lineage marker Pax8. In addition, all positive candidates identified in the primary screen have been assessed for drug duration and dose effects to increase the formation of lung progenitors, and they have been evaluated for other effects including inducing cytotoxicity, and cellular proliferation by Ki67 staining. […] It was also determined that BMP4 is dispensable for human lung progenitor differentiation from iPSCs, indicating a species difference in lung development in human and mouse.
Several of these negative compounds are MEK1/2 antagonists. […] For example, endoderm-specific deletion of MEK1/2 results in lung agenesis in mice (unpublished data).
After studying the additive and synergistic effects of the positive hits, a robust and economically efficient new protocol was devised for the generation of a highly enriched population of Nkx2.1+ lung progenitors (up to 85%-90%) from multiple iPS cell lines in xeno-free conditions in order to keep the cells suitable for future clinical applications. This exemplary differentiation medium contains one Wnt agonist (e.g., 0.5 uM CHIR9902), one PI3 kinase inhibitor (e.g., 0.02-0.05 uM PIK-75), one clinically used drug (e.g., 0.02-0.05 uM methotrexate), one BMP antagonist (e.g., 2-4 uM Dorsomorphin) and a single growth factor (e.g., 10-50 ng/ml FGF2). FIG. 12 is the summary of the newly developed step-wise airway progenitor differentiation protocol from iPSC to airway progenitors. Many other protocols can be generated by one of skill in the art from this basic protocol (RPMI+2% B27+10-50 ng/ml FGF2+0.5 uM CHIR9902+2-4 uM Dorsomorphin) together with the compounds listed in FIG. 14.

[3] = tested on: mouse ESC-derived Nkx2.1+ cells; assay: Generation of proximal airway progenitors from mouse ESC-derived Nkx2.1+ lung endoderm cells; assay type: cell-based
Method: (§1) Mouse Endoderm Anteriorization and Nkx2.1 Cell Differentiation: Mouse definitive endoderm was generated as described herein. To anteriorize endoderm, on and after day 5, the cells were split and re-seeded on to the plates pre-coated with 804G-conditioned medium and fed with DO medium+0.5-1 μM A8301 (CalBiochem, 616454) for 2 days.

[4] = tested on: mouse ESC-derived endoderm / anterior foregut endoderm cells; conditions: for NKX2.1 induction: anteriorized endoderm, BMP4 alone, or FGF2 or/and GSK3i without BMP4
Description: Dorsomorphin inhibits BMP signaling through the SMAD pathway while PD98059 inhibits MAPK signaling.
A recent report described a monolayer-based strategy using synergistic activation of Nodal and Wnt-β-catenin signaling as well as staged BMP4 inhibition to direct mouse ES cells towards an endoderm fate with high efficiency (Sherwood et al., 2011). This technology was adapted herein to generate definitive endoderm (DE) from mouse ES cells. […] Snoeck and colleagues reported that Noggin (a BMP inhibitor) synergized with SB431542 (a TGFβ inhibitor) to suppress a posterior endoderm fate (Cdx2+) in favor of an anterior endoderm fate (Sox2+) (Green et al., 2011). […] Endoderm was treated with combinations of Activin (a TGFβ agonist), A-83-01 (a TGFβ antagonist), BMP4, and Dorsomorphin (a BMP4 antagonist) for 2 days (FIG. 2B). The number of FoxA2+Sox2+ anterior endoderm cells was compared to the total number of FoxA2+ endoderm cells (FIG. 2B). The treated cells were further exposed to the BMP4/FGF2/WNT agonist cocktail for another 2 days to examine their competence to generate Nkx2.1+ cells (FIG. 2B). […] It was tested if their inhibition would enhance anteriorization together with a TGFβ inhibitor.
The expression of lung and other anterior cell fate lineage genes including FoxN1 (thymus), Pax8 (thyroid), and Pax9 and Tbx1 (pharyngeal pouch endoderm) was analyzed by real-time qPCR (Figure S4A).
It was tested if BMP4, FGF2, and WNT signaling are each required to specify lung endoderm from the anterior foregut in an in vitro mouse ESC differentiation system. To do this, anteriorized endoderm cells were exposed to combinations of BMP4, FGF2 and WNT agonists and antagonists (FIGS. 3A and B).
These complexes translocate to the nucleus and activate expression of target genes (von Bubnoff and Cho, 2001; Chen et al., 2004; Sieber et al., 2009; Miyazono et al., 2010). Besides Smad1/5/8-mediated transcription, BMP-induced receptor complexes can activate the mitogen-activated protein kinase (MAPK) pathway via ERK, […] or p38 (Kozawa et al., 2002).
as §1

## CCN(CC)CCCCNc1ncc2cc(-c3cc(OC)cc(OC)c3)c(NC(=O)NC(C)(C)C)nc2n1 [PD173074]
[1]; together with a TGFβ inhibitor at anteriorization
  cell death: induced cell death

## CCCCCCCCCCCCCC(=O)O[C@@H]1[C@@H](C)[C@@]2(O)[C@@H](C=C(CO)C[C@]3(O)C(=O)C(C)=C[C@@H]23)[C@@H]2C(C)(C)[C@]12OC(C)=O [phorbol 12-myristate 13-acetate]
[2]; in vitro differentiation systems
  NKX2.1+ cell production: stimulates NKX2.1+ cell production

## O=C(Nc1cccc2cccnc12)c1ccc(N2C(=O)[C@@H]3[C@H](C2=O)[C@@H]2C=C[C@H]3C2)cc1 [IWR-1]
[3]; individual factors removed or replaced in proximal induction medium
  effect on Nkx2.1+Sox2+ cell production: most pronounced effect
[1]
  effect on FoxA2+Sox2+ cells: did not increase the FoxA2+Sox2+ population

## BMP4: bone morphogenic protein 4, growth factor
[2]
  requirement for human lung progenitor differentiation from iPSCs: dispensable
[2]; addition of BMP4
  NKX2.1 expression level: decreases NKX2.1 expression
  total NKX2.1+ lung progenitor cell number: without affecting the total NKX2.1+ lung progenitor cell number
[4]
  NKX2.1 induction: could induce NKX2.1 expression
[1]; BMP4 present between days 5-7
  neuroectodermal marker Tuj1: less neuroectodermal marker Tuj1 was present

## COc1cccc(-c2cc(=O)c3ccccc3o2)c1N [PD98059]
[3]; from day 9, 2-3 days, 1%-2% before treatment
  Nkx2.1+Sox2+ airway progenitor cells (of total number of Nkx2.1+ cells): up to 18%
[4]
  cell death: Significant cell death
[4]; added to BMP4 induction (pSmad1/5/8 or MAPKK/ERK inhibition)
  effect on generation of Nkx2.1+ cells: only partially decreased the Nkx2.1+ cell proportion

## FGF2: fibroblast growth factor
[4]; added dose of FGF2 despite presumptive endogenous FGF signaling
  effect on Nkx2.1+ cells: upregulated Nkx2.1+ cells
[4]
  NKX2.1 induction: not sufficient for NKX2.1 induction

## COC(=O)c1ccc[cH-]1.O=C1NC(=O)c2c1c1cccnc1c1[n-]c3c(Br)cc(O)cc3c21.[CH+]=O.[Ru] [GSK3i]
[4]
  NKX2.1 induction: not sufficient for NKX2.1 induction

B1: Activin: a TGFβ agonist (protein, UniProt P08476 311-426, looked up)
Inhibin beta A chain: GLECDGKVNICCKKQFFVSFKDIGWNDWIIAPSGYHANYCEGECPSHIAGTSGSSLSFHSTVINHYRMRGHSPFANLKSCCVPTKLRPMSMLYYDDGQNIIKKDIQNMIVEECGCS
modifications: Inhibin beta A chain
notes: a TGFβ agonist
[4]; treatment at the anteriorization step, then BMP4/FGF2/WNT agonist cocktail 2 days
  effect on Nkx2.1+ cells: few Nkx2.1+ cells
[1]
  effect on FoxA2+Sox2+ cells: rare FoxA2+Sox2+ cells

B2: BMP7: BMP family member binding type I receptor ALK2 (protein, UniProt P18075 293-431, looked up)
Bone morphogenetic protein 7: STGSKQRSQNRSKTPKNQEALRMANVAENSSSDQRQACKKHELYVSFRDLGWQDWIIAPEGYAAYYCEGECAFPLNSYMNATNHAIVQTLVHFINPETVPKPCCAPTQLNAISVLYFDDSSNVILKKYRNMVVRACGCH
[4]; BMP7 10 ng/ml
  induction of Nkx2.1+ cells from the anterior endoderm compared to BMP4: had no effect
[4]; increased concentration (>100 ng/ml)
  induction of Nkx2.1+ cells from the anterior endoderm: still failed to generate Nkx2.1+ cells
